biological target: T1, menin-MLL interaction (Homo sapiens, UniProt O00255); experiment: biochemical
T1 sequence (O00255 1-610): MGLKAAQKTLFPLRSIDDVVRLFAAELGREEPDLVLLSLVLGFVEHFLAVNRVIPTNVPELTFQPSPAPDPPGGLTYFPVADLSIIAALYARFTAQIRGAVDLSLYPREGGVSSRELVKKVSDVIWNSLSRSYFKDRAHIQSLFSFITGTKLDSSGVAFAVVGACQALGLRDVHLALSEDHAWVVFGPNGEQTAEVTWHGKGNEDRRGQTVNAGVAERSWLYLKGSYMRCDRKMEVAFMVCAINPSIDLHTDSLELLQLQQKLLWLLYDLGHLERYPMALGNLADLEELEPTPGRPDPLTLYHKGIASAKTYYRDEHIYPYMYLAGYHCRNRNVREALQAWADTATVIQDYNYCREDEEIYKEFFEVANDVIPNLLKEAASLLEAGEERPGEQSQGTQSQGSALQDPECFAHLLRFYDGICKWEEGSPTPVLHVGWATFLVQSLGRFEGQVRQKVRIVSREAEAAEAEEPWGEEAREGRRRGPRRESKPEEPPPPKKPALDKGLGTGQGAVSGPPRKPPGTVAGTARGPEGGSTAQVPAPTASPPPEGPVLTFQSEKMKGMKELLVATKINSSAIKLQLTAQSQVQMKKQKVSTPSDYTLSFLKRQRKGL
Source text: Compounds that inhibit the interaction decrease the fluorescence anisotropy which is being used as a read-out for compound screening and for IC50 determination.

Row | SMILES | IC50 [nM]
1 | CCCCC(O)(CO)Cn1c(C#N)cc2c(C)c(CN3CCC(Nc4ncnc5sc(CC(F)(F)F)cc45)CC3)ccc21 (stereo not drawn) [Compound 338] | < 100
2 | Cc1ncc(Cn2c(C#N)cc3c(C)c(CN4CCC(Nc5ncnc6sc(CC(F)(F)F)cc56)CC4)ccc32)[nH]1 [Compound 351] | < 100
3 | N#Cc1cc2c(C=O)c(CN3CCC(Nc4ncnc5sc(CC(F)(F)F)cc45)CC3)ccc2n1Cc1cn[nH]c1 [Compound 352] | < 100
4 | Cc1c[nH]c(CCC(O)(CO)Cn2c(C#N)cc3c(C)c(CN4CCC(Nc5ncnc6sc(CC(F)(F)F)cc56)CC4)ccc32)n1 (stereo not drawn) [Compound 374] | < 100
5 | Cc1c(CN2CCC(Nc3ncnc4sc(CC(F)(F)F)cc34)CC2)ncc2[nH]c(C#N)cc12 [Compound 380] | < 100
6 | N#Cc1cc2c(Cl)c(CN3CCC(Nc4ncnc5sc(CC(F)(F)F)cc45)CC3)ccc2n1Cc1cn[nH]c1 [Compound 381] | < 100
7 | N#Cc1cc2cc(CN3CCC(Nc4ncnc5sc(CC(F)(F)F)cc45)CC3)c(O)cc2n1Cc1cn[nH]c1 [Compound 382] | < 100
8 | COc1cc2[nH]c(C#N)cc2c(C)c1CN1CCC(Nc2ncnc3sc(CC(F)(F)F)cc23)CC1 [Compound 383] | < 100
9 | Cc1c(CN2CCC(Nc3ncnc4sc(CC(F)(F)F)cc34)CC2)c(O)cc2[nH]c(C#N)cc12 [Compound 384] | < 100
10 | COc1cc2c(cc(C#N)n2CC(N)=O)c(C)c1CN1CCC(Nc2ncnc3sc(CC(F)(F)F)cc23)CC1 [Compound 385] | < 100
11 | COc1cc2c(cc(C#N)n2CCO)c(C)c1CN1CCC(Nc2ncnc3sc(CC(F)(F)F)cc23)CC1 [Compound 386] | < 100
12 | Cc1c(CN2CCC(Nc3ncnc4sc(CC(F)(F)F)cc34)CC2)c(O)cc2c1cc(C#N)n2CCO [Compound 387] | < 100
13 | Cc1c(CN2CCC(Nc3ncnc4sc(CC(F)(F)F)cc34)CC2)c(O)cc2c1cc(C#N)n2Cc1cn[nH]c1 [Compound 388] | < 100
14 | COc1cc2c(cc(C#N)n2Cc2cn[nH]c2)c(C)c1CN1CCC(Nc2ncnc3sc(CC(F)(F)F)cc23)CC1 [Compound 389] | < 100
15 | COc1cc2c(cc1CN1CCC(Nc3ncnc4sc(CC(F)(F)F)cc34)CC1)cc(C#N)n2Cc1cn[nH]c1 [Compound 390] | < 100
16 | Cc1c(CN2CCC(Nc3ncnc4sc(CC(F)(F)F)cc34)CC2)c(O)cc2c1cc(C#N)n2Cc1c[nH]nn1 [Compound 391] | < 100
17 | COc1cc2c(cc(C#N)n2Cc2c[nH]nn2)c(C)c1CN1CCC(Nc2ncnc3sc(CC(F)(F)F)cc23)CC1 [Compound 392] | < 100
18 | CS(=O)(=O)OCCn1c(C#N)cc2cc(CN3CCC(Nc4ncnc5sc(CC(F)(F)F)cc45)CC3)ccc21 [Compound 395] | < 100
19 | N#Cc1cc2c(OC(F)F)c(CN3CCC(Nc4ncnc5sc(CC(F)(F)F)cc45)CC3)ccc2[nH]1 [Compound 408] | 100 to 500
20 | CCOc1c(CN2CCC(Nc3ncnc4sc(CC(F)(F)F)cc34)CC2)ccc2c1cc(C#N)n2CC(N)=O [Compound 409] | 100 to 500
21 | Cc1cc(CN2CCC(Nc3ncnc4sc(CC(F)(F)F)cc34)CC2)cc2cc(C#N)[nH]c12 [Compound 410] | 100 to 500
22 | COCCOCCn1nc(Cn2c(C#N)cc3cc(CN4CCC(Nc5ncnc6sc(CC(F)(F)F)cc56)CC4)ccc32)cc1C [Compound 411] | 100 to 500
23 | N#Cc1cc2cc(CN3CCC(Nc4ncnc5sc(CC(F)(F)F)cc45)CC3)ccc2n1Cc1cc(OCCC2CC2)n[nH]1 [Compound 412] | 100 to 500
24 | N#Cc1cc2cc(CN3CCC(Nc4ncnc5sc(CC(F)(F)F)cc45)CC3)ccc2n1CC(O)(CO)COCCC1CCCCC1 (stereo not drawn) [Compound 413] | 100 to 500

Next, values leading:

Row | IC50 [nM] | SMILES
25 | < 100 | Cc1c(CN2CCC(Nc3ncnc4sc(CC(F)(F)F)cc34)CC2)ccc2c1cc(C#N)n2CCN1CCN(C(=O)CCC2CCCCC2)CC1 [Compound 339]
26 | < 100 | Cc1c(CN2CCC(Nc3ncnc4sc(CC(F)(F)F)cc34)CC2)ccc2c1cc(C#N)n2CCN1CCN(C(=O)Cc2ccccc2)CC1 [Compound 340]
27 | < 100 | Cc1c(CN2CCC(Nc3ncnc4sc(CC(F)(F)F)cc34)CC2)ccc2c1cc(C#N)n2CCN1CCN(C(=O)CCc2ccccc2)CC1 [Compound 341]
28 | < 100 | Cc1c(CN2CCC(Nc3ncnc4sc(CC(F)(F)F)cc34)CC2)ccc2c1cc(C#N)n2CCN1CCN(C(=O)CCC(F)(F)F)CC1 [Compound 342]
29 | < 100 | Cc1c(CN2CCC(Nc3ncnc4sc(CC(F)(F)F)cc34)CC2)ccc2c1cc(C#N)n2CCN1CCN(C(=O)CC2CCCCC2)CC1 [Compound 343]
30 | < 100 | Cc1c(CN2CCC(Nc3ncnc4sc(CC(F)(F)F)cc34)CC2)ccc2c1cc(C#N)n2CCN1CCN(C(=O)CCC2CC2)CC1 [Compound 344]
31 | < 100 | Cc1c(CN2CCC(Nc3ncnc4sc(CC(F)(F)F)cc34)CC2)ccc2c1cc(C#N)n2Cc1cc(Cc2ccncc2)[nH]n1 [Compound 345]
32 | < 100 | Cc1c(CN2CCC(Nc3ncnc4sc(CC(F)(F)F)cc34)CC2)ccc2c1cc(C#N)n2CC(O)(CO)CCC1CCCCC1 (stereo not drawn) [Compound 346]
33 | < 100 | Cc1c(CN2CCC(Nc3ncnc4sc(CC(F)(F)F)cc34)CC2)ccc2c1cc(C#N)n2Cc1cc(Cc2ccc(=O)[nH]c2)[nH]n1 [Compound 347]
34 | < 100 | Cc1c(CN2CCC(Nc3ncnc4sc(CC(F)(F)F)cc34)CC2)ccc2c1cc(C#N)n2CC(O)(CO)CC1CCCCC1 (stereo not drawn) [Compound 348]
35 | < 100 | Cc1c(CN2CCC(Nc3ncnc4sc(CC(F)(F)F)cc34)CC2)ccc2c1cc(C#N)n2Cc1cnc[nH]1 [Compound 349]
36 | < 100 | Cc1nc[nH]c1Cn1c(C#N)cc2c(C)c(CN3CCC(Nc4ncnc5sc(CC(F)(F)F)cc45)CC3)ccc21 [Compound 350]
37 | < 100 | Cc1c(CN2CCC(Nc3ncnc4sc(CC(F)(F)F)cc34)CC2)ccc2c1cc(C#N)n2Cc1ncco1 [Compound 353]
38 | < 100 | Cc1c(CN2CCC(Nc3ncnc4sc(CC(F)(F)F)cc34)CC2)ccc2c1cc(C#N)n2CCS(C)(=O)=O [Compound 354]
39 | < 100 | Cc1c(CN2CCC(Nc3ncnc4sc(CC(F)(F)F)cc34)CC2)ccc2c1cc(C#N)n2CCN1CCNC(=O)C1 [Compound 355]
40 | < 100 | Cc1c(CN2CCC(Nc3ncnc4sc(CC(F)(F)F)cc34)CC2)ccc2c1cc(C#N)n2CCN1CCN(C)C(=O)C1 [Compound 356]
41 | < 100 | Cc1c(CN2CCC(Nc3ncnc4sc(CC(F)(F)F)cc34)CC2)ccc2c1cc(C#N)n2CCN1CCN(C(C)C)CC1 [Compound 357]
42 | < 100 | Cc1c(CN2CCC(Nc3ncnc4sc(CC(F)(F)F)cc34)CC2)ccc2c1cc(C#N)n2CC(O)CN1CCNCC1 (stereo not drawn) [Compound 358]

Row | IC50 [nM] | SMILES
43 | < 100 | Cc1c(CN2CCC(Nc3ncnc4sc(CC(F)(F)F)cc34)CC2)ccc2c1cc(C#N)n2CCN1CCSCC1 [Compound 360]
44 | < 100 | Cc1c(CN2CCC(Nc3ncnc4sc(CC(F)(F)F)cc34)CC2)ccc2c1cc(C#N)n2Cc1cnco1 [Compound 361]
45 | < 100 | Cc1c(CN2CCC(Nc3ncnc4sc(CC(F)(F)F)cc34)CC2)ccc2c1cc(C#N)n2CCN1CCOC(CO)C1 (stereo not drawn) [Compound 362]
46 | < 100 | Cc1c(CN2CCC(Nc3ncnc4sc(CC(F)(F)F)cc34)CC2)ccc2c1cc(C#N)n2CCN1CCNC(C(N)=O)C1 (stereo not drawn) [Compound 363]
47 | < 100 | Cc1c(CN2CCC(Nc3ncnc4sc(CC(F)(F)F)cc34)CC2)ccc2c1cc(C#N)n2CCN1CCN(CC(N)=O)CC1 [Compound 364]
48 | < 100 | Cc1cc(Cn2c(C#N)cc3c(C)c(CN4CCC(Nc5ncnc6sc(CC(F)(F)F)cc56)CC4)ccc32)[nH]n1 [Compound 365]
49 | < 100 | Cc1c(CN2CCC(Nc3ncnc4sc(CC(F)(F)F)cc34)CC2)ccc2c1cc(C#N)n2CCN1CCN[C@@H](C)C1 [Compound 367]
50 | < 100 | Cc1c(CN2CCC(Nc3ncnc4sc(CC(F)(F)F)cc34)CC2)ccc2c1cc(C#N)n2CCN1CCS(=O)(=O)CC1 [Compound 368]
51 | < 100 | Cc1c(CN2CCC(Nc3ncnc4sc(CC(F)(F)F)cc34)CC2)ccc2c1cc(C#N)n2CCN1CCNC(C)C1 (stereo not drawn) [Compound 369]
52 | < 100 | CC(=O)NCCC(O)(CO)Cn1c(C#N)cc2c(C)c(CN3CCC(Nc4ncnc5sc(CC(F)(F)F)cc45)CC3)ccc21 (stereo not drawn) [Compound 371]
53 | < 100 | Cc1c(CN2CCC(Nc3ncnc4sc(CC(F)(F)F)cc34)CC2)ccc2c1cc(C#N)n2CC(O)(CO)CCn1ccnn1 (stereo not drawn) [Compound 373]
54 | < 100 | Cc1c(CN2CCC(Nc3ncnc4sc(CC(F)(F)F)cc34)CC2)ccc2c1cc(C#N)n2CCN1CCN(S(=O)(=O)N(C)C)CC1 [Compound 375]
55 | < 100 | Cc1c(CN2CCC(Nc3ncnc4sc(CC(F)(F)F)cc34)CC2)ccc2c1cc(C#N)n2CCN1CCN(C(=O)N(C)C)CC1 [Compound 376]
56 | < 100 | Cc1c(CN2CCC(Nc3ncnc4sc(CC(F)(F)F)cc34)CC2)ccc2c1cc(C#N)n2CCN1CCNC(C(F)(F)F)C1 (stereo not drawn) [Compound 378]
57 | < 100 | Cc1c(CN2CCC(Nc3ncnc4sc(CC(F)(F)F)cc34)CC2)ccc2c1cc(C#N)n2Cc1cnn(C)c1 [Compound 379]
58 | < 100 | N#Cc1cc2cc(CN3CCC(Nc4ncnc5sc(CC(F)(F)F)cc45)CC3)ccc2n1CCN1CCNCC1 [Compound 393]
59 | < 100 | CCC(=O)N1CCN(CCn2c(C#N)cc3cc(CN4CCC(Nc5ncnc6sc(CC(F)(F)F)cc56)CC4)ccc32)CC1 [Compound 394]
60 | < 100 | CCC(=O)N1CCN(CCCn2c(C#N)cc3cc(CN4CCC(Nc5ncnc6sc(CC(F)(F)F)cc56)CC4)ccc32)CC1 [Compound 396]

— patent US9505781B2, “Compositions comprising thienopyrimidine and thienopyridine compounds and methods of use thereof” (The Regents of the University of Michigan, priority 2013, dated 2016)
